Source: patent publication US20150018398A1, “METHODS OF USING ESTROGEN RECEPTOR-BETA LIGANDS AS RADIATION MITIGATORS” (The Regents of the University of California, priority 2013, published 2015)
“Also recorded” adds a separate entry of the source.

Experiments:
[1] = system: H23 lung epithelial cells; experiment: Cell survival after irradiation (H23 lung epithelial cells); type: cell-based, human; settings: P<0.001; for lung cell survival post-radiation: H23, pre-treatment before irradiation
From the text: (§1) FIGS. 6A-6B. […] 15; 59(6):1347-55).
(§2) ER-selective ligands increase survival of epithelial and endothelial cells post-radiation.

[2] = system: radiation-damaged reporter DNA in H23 lung cells; experiment: Reporter DNA repair assay; type: cell-based, human; settings: 24 h after transfection, 2 nM E2, 0.5 nM DPN or ERB
From the text: FIG. 9. […] 15; 59(6):1347-55); data are from 3 experiments (mean±SEM).

[3] = system: normal human bronchial epithelial (NHBE) cells; experiment: Cell viability after irradiation (NHBE cells); type: cell-based; settings: 5 nM for 2 h before irradiation (2 Gy), up to 48 h
From the text: An additional experiment was done using normal human bronchial epithelial (NHBE) cells (see FIG. 7). […] These collective findings support the underlying hypothesis on the role of ERβ signaling in modulating radiation sensitivity.

C57/BL6 mice = experiment: Survival after lethal TBI, C57/BL6 mice; type: in vivo; settings: male C57/BL6 mice; 8.5 Gy TBI; DPN 10 mg/kg SC or ERB-041 50 mg/kg oral gavage daily for 5 days starting 24 hours after TBI; 30 days
From the text: FIG. 15. […] Mice (n=8/group) received 8.5 Gy TBI. […] Controls received appropriate vehicle treatment (e.g. SC [CON SC] or OG [CON OG].
To validate our results above using a different animal model, we used C57/BL6 mice that were also bred and maintained in our AALAC-accredited animal facilities. As above, the UCLA ARC approved all studies. Male mice, 9 weeks-old, in a well-ventilated Lucite chamber without anesthesia received 8.5 Gy TBI from a Gamma Cell 40 irradiator (^137Cs source; Atomic Energy of Canada) at a dose rate of 67 cGy/min. […] Mice were monitored for 30 days using standard criteria for humane euthanasia as an endpoint and weights were recorded twice/week. […] These preliminary findings (FIGS. 14 & 15) provide good evidence to pursue further investigation of ERβ ligands as radiation mitigators.

[4] = in vivo; cited from earlier work
[5] = system: human vascular endothelial cells (HUVEC); experiment: Cell survival after irradiation, drug given 24 h after RT (HUVEC); type: cell-based; settings: for cell survival post-radiation (radiation mitigation): HUVEC, treatment at 24 hours after irradiation, P<0.001
From the text: as §1, §2

C3H mice = experiment: Survival after lethal TBI, C3H mice; type: in vivo; settings: for lethality and survival after TBI: male C3H mice, 7.725 Gy TBI, DPN 10 mg/kg SC or ERB-041 50 mg/kg oral gavage daily for 5 days starting 24 h after TBI
From the text: C3H mice were bred and maintained in a strict defined-flora, pathogen-free environment in the AALAC-accredited animal facilities. The UCLA ARC approved all experiments which were done in accord with all local and national guidelines for care and use of animals. Male mice, 9-10 wks old, received 7.725 Gy TBI from a Gamma Cell 40 irradiator (^137Cs source; Atomic Energy of Canada) at a dose rate of 67 cGy/min. […] Mice were monitored for up to 60 days using standard criteria for humane euthanasia as an endpoint and weights were recorded twice/week.

[6] = system: H23 lung epithelial cells with ERβ silencing (ERbKD); experiment: Cell survival after irradiation with ERβ siRNA knockdown; type: cell-based, human; settings: lung epithelial cells treated with siRNA to suppress ERβ expression
Protocol: FIG. 8. H23 lung epithelial cells were transfected with control non-specific siRNAs (CON) or smart-pool ESR2 [ERβ] siRNA for ERβ silencing (ERbKD) as before (31,32); control cells were then treated with or without estradiol (E2) and compared with ERbKD cells treated with estradiol for 2 hrs before irradiation at 0-15 Gy as indicated in the figure (n=3 experiments); surviving cell fractions (%) are plotted on a log scale at increasing radiation doses.
To further assess the role of ERβ as a radioprotector and potential radiation mitigator, lung epithelial cells were treated with small inhibitory RNAs (siRNA) to suppress ERβ expression using established methods (Márquez-Garbán D C, Chen H W, Fishbein M C, Goodglick L, Pietras R J. Steroids. 2007 February; 72(2):135-43. Epub 2007 Feb. 5; Márquez D C, Chen H W, Curran E M, Welshons W V, Pietras R J. Mol Cell Endocrinol. 2006 Feb. 26; 246(1-2):91-100. Epub 2006 Jan. 4). […] Thus, ERβ appears to play a critical role in mediating effects of estrogen post-irradiation.

[7] = system: MDM2 in A549 lung epithelial cells; experiment: MDM2 expression by Western blot; type: cell-based, human; settings: E2 10 nM, DPN or PPT 1 μM for 24 h
From the text: Estrogens modulate MDM2 expression in lung cells. MDM2 is well known to bind and inhibit p53 FIG. 3). ERα binds and regulates the MDM2 promoter to stimulate MDM2 expression (see FIG. 12). Indeed, MDM2 SNP309 is reported to occur in an ER binding region of the MDM2 promoter, and affected individuals with SNP309 have increased MDM2 levels mediated by estrogen signaling (33,34).

[8] = system: phospho-serine-1981-ATM (PS-ATM) in A549 cells; experiment: RT-induced ATM activation (PS-ATM staining); type: cell-based, human; settings: treated 2 h, 5 Gy, stained 2 h after radiation, E2 10 nM, DPN/PPT 1 μM
Protocol: Phosphoryaltion of ATM is a critical first step in cell responses to RT (FIG. 3). Lung cells treated with control or estrogen for 2 hr were then irradiated and examined after 2 h for ATM activation (FIG. 10).

lung cells = experiment: TUNEL assay of apoptosis after RT; type: cell-based; settings: E2 10 nM, DPN 1 μM, PPT 1 μM for 2 h, then 15 Gy, TUNEL after 48 h
From the text: Cell death is a measurable outcome due to significant radiation injury.

[9] = system: VEGF secretion by H23 lung epithelial cells; experiment: VEGF secretion by ELISA after irradiation; type: cell-based, human; settings: for VEGF secretion after irradiation: H23, treated 2 hrs before irradiation (10 Gy), ELISA after 24 hrs; for increase in vascular endothelial growth factor (VEGF) secretion: lung epithelial cells pre-treated (E2 2 nM, DPN 5 nM, 2 hrs) before irradiation (10 Gy), P<0.001
[10] = system: sublethally-irradiated mice; settings: treatment 24 h before RT; cited from earlier work
ERα = target: T1, ERα (Homo sapiens, UniProt P03372); settings: Harrington et al. 2003; cited from earlier work
T1 sequence (P03372 1-595): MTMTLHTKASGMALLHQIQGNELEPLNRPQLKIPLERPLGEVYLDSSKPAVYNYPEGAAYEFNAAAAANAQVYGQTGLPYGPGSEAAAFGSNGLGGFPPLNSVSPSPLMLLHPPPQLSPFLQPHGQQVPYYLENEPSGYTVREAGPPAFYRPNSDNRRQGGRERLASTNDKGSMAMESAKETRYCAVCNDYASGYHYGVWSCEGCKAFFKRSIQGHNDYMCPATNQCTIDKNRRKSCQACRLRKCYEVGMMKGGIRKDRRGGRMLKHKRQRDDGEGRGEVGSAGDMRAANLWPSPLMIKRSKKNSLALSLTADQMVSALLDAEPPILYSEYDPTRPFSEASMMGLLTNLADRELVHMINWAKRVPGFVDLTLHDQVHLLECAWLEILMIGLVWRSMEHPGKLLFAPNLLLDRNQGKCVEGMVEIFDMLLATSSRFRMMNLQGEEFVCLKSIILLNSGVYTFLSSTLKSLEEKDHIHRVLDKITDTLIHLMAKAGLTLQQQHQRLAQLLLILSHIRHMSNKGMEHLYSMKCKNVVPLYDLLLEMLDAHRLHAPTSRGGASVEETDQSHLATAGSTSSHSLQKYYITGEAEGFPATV

[11] = system: ERβ-EGFR interaction in H23 lung tumor cells; experiment: ERβ-EGFR co-immunoprecipitation; type: cell-based, human; settings: DPN treatment
Protocol: EGF stimulates ERβ-EGFR interaction in epithelial cells. To assess the idea that ERβ interacts with EGFR to promote cross-talk in signaling, the association of these molecules in co-immunoprecipitation studies was tested in vitro (Márquez D C, Lee J, Lin T, Pietras R J. Endocrine. 2001 November; 16(2):73-81) (FIG. 4).

Compound | lung cell survival post-radiation [1] | repair of radiation-damaged reporter DNA [2] | cell viability / protection from radiation injury ([3]; P<0.001) | lethality and survival after TBI (C57/BL6 mice) | cell survival post-radiation (radiation mitigation) [5] | lethality and survival after TBI (C3H mice) | radioprotective / radiation mitigator effect in cells with ERβ knockdown [6] | MDM2 levels [7] | ATM phosphorylation at serine 1981 (nuclear clustering of PS-ATM) after irradiation [8] | radiation-induced apoptosis (lung cells) | VEGF secretion after irradiation [9] | increase in vascular endothelial growth factor (VEGF) secretion [9] [fold] | also measured
C=Cc1cc(O)cc2nc(-c3ccc(O)c(F)c3)oc12 [ERB-041, (4Z)-4-(7-ethenyl-5-hydroxy-3H-1,3-benzoxazol-2-ylidene)-2-fluorocyclohexa-2,5-dien-1-one] | dose-dependent increase in lung cell survival post-radiation | stimulation of enhanced DNA repair after irradiation | protect normal epithelial cells from radiation injury | somewhat less efficacious as a radiation mitigator | mitigates these effects in HUVEC cells | somewhat less efficacious as a radiation mitigator |  |  |  |  |  |  | cell viability / protection from radiation injury ([3]; P<0.001, listed as ERB): significantly different from control; oral bioavailability [4]: notable oral bioavailability
C[C@]12CC[C@@H]3c4ccc(O)cc4CC[C@H]3[C@@H]1CC[C@@H]2O [E2, estradiol-17β] |  | stimulation of enhanced DNA repair after irradiation |  |  |  |  | failed to show a radioprotective effect | stimulate MDM2 levels | increased | showed efficacy in suppressing radiation-induced apoptosis | stimulate high levels of VEGF secretion | 2 | repair of radiation-damaged reporter DNA ([2]; listed as Estrogen): stimulate repair of radiation-damaged reporter DNA
O=c1c(-c2ccc(O)cc2)coc2cc(O)cc(O)c12 [Genistein] |  |  |  |  |  |  |  |  |  |  |  |  | survival of irradiated mice [10]: increased survival without other significant toxicity
CCCc1c(-c2ccc(O)cc2)nn(-c2ccc(O)cc2)c1-c1ccc(O)cc1 [PPT, Propylpryazoletriol] |  |  |  |  |  |  |  | stimulate MDM2 levels | not | showed efficacy in suppressing radiation-induced apoptosis |  |  | ERα agonism (ERα): potent ERα agonist
N#CC(Cc1ccc(O)cc1)c1ccc(O)cc1 (stereo not shown) [DPN, 2,3-bis[4-hydroxyphenyl]-propionitrile] | dose-dependent increase in lung cell survival post-radiation | stimulation of enhanced DNA repair after irradiation; also recorded: stimulates repair of radiation-damaged reporter DNA | protect normal epithelial cells from radiation injury; also recorded: significantly different from control | protects mice from lethality and improves survival | mitigates these effects in HUVEC cells | protected mice from lethality and improved survival | abolished |  |  | showed efficacy in suppressing radiation-induced apoptosis; also recorded: reduce radiation-induced apoptosis | stimulate high levels of VEGF secretion | 2 | effect as a radiation mitigator ([1]; H23 cells, treatment at 24 hrs after irradiation, two experiments): comparable effect as a radiation mitigator; Cell survival ([5]; normal human lung epithelial and vascular endothelial cells in vitro, treatment at 24-hr after irradiation, vs controls P<0.001): significantly improved in a dose-dependent fashion; post-irradiation survival (C3H mice; mouse models in vivo, subcutaneous, treatment started 24 hours after TBI): 100%; post-irradiation time window (C3H mice; radiation mitigator): > 24 h; VEGF secretion, treatment after irradiation ([9]; treatment at 24 hours after irradiation (10 Gy), vs controls P<0.001): comparable increase in VEGF secretion; also recorded: significant increase in VEGF secretion; interaction of ER-beta with EGFR [11]: promotes interaction of ERβ with EGFR; also recorded: promotes interaction of ER-beta with EGFR
